Reference: patent publication US20250221966A1, “RXFP1 AGONISTS” (BRISTOL-MYERS SQUIBB COMPANY, priority 2021, published 2025)

molecular target: T1, human RXFP1 (Homo sapiens, UniProt Q9HBX9); assay: RXFP1 cAMP assay (hRXFP1 HEK293 cAMP assay, HTRF); assay type: cell-based; details: HEK293 cells stably expressing human RXFP1, 30 min at room temperature, read-out: cAMP hRXFP1 HEK293 Assay EC50
T1 construct: expressed in transfected cells
T1 sequence (Q9HBX9 1-757): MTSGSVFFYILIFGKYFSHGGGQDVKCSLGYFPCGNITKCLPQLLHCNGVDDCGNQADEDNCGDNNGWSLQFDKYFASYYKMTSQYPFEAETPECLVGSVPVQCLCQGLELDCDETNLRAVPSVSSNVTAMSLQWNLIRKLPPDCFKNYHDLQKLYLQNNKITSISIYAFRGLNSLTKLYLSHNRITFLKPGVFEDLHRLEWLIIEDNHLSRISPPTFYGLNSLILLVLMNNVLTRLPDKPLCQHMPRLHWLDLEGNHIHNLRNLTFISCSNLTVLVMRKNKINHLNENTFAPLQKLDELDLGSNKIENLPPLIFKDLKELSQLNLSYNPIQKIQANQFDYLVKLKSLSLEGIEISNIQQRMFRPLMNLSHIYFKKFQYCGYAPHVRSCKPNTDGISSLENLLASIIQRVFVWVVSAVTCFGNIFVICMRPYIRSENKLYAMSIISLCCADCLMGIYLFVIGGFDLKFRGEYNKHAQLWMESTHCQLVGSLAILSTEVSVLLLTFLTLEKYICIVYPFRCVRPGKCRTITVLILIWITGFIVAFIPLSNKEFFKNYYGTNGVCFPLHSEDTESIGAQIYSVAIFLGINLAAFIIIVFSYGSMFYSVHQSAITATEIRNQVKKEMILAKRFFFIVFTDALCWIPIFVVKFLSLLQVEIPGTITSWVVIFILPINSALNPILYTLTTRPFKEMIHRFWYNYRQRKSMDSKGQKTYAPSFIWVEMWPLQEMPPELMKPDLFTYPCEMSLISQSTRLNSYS
Procedure, shortened: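 Potency and activity come from a four-parameter logistic fit of cAMP against compound concentration, tested from 0.010 nM up to 50 μM. The assay uses HEK293 cells stably expressing human RXFP1, incubated 30 min at ambient temperature with phosphodiesterase inhibitor IBMX present.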

Row | SMILES | EC50 [µM]
1 | COC(=O)NC(C(=O)O)c1ccc(F)c(-c2ccc(OC)c(C(=O)N[C@@H]3C4CCC(/C4=C/C(F)(F)F)[C@@H]3C(=O)Nc3ccc(F)c(C(F)(F)F)c3)c2)c1 (stereo partly shown) [compound 185] | 0.015
2 | CC(C)=C1C2CCC1[C@H](C(=O)Nc1ccc(F)c(C(F)(F)F)c1)[C@@H]2NC(=O)c1cc(-c2cc(C(=O)O)ccc2F)ccc1N(C)C (stereo partly shown) [Example 107] | 0.18
3 | COc1ccc(-c2ccc3c(C(=O)OCc4ccccc4)cnn3c2)cc1C(=O)N[C@@H]1C2CCC(/C2=C/C(F)(F)F)[C@@H]1C(=O)Nc1ccc(F)c(C(F)(F)F)c1 (stereo partly shown) [compound 316] | 0.081
4 | COc1ccc(-c2cc(C(=O)O)ccc2F)cc1C(=O)N[C@@H]1C2CCC(/C2=C/C2CC2)[C@@H]1C(=O)NC1CC2(CCC2)C1 (stereo partly shown) [compound 301] | 0.85
5 | COc1ccc(-c2cc(C(CO)NC(=O)C3CCOCC3)ccc2F)cc1C(=O)N[C@@H]1C2CCC(/C2=C/C2CC2)[C@@H]1C(=O)Nc1ccc(F)c(C(F)(F)F)c1 (stereo partly shown) [compound 257] | 0.016
6 | COc1ccc(-c2cc(C(=O)O)ccc2F)cc1C(=O)N[C@@H]1C2CCC(/C2=C/C2CC2)[C@@H]1C(=O)NC1CCCCC1 (stereo partly shown) [compound 203] | 0.322
7 | CONC(=O)OC(c1ccc(F)c(-c2ccc(OC)c(C(=O)N[C@@H]3C4CCC(/C4=C/C4CC4)[C@@H]3C(=O)Nc3ccc(F)c(C(F)(F)F)c3)c2)c1)C(F)(F)F (stereo partly shown) [compound 214] | 0.002
8 | COc1c(F)cc(C2=NOC3CC(CO)CC23)cc1C(=O)N[C@H]1[C@@H](C(=O)NCC(C)(C)C)[C@H]2CC[C@@H]1/C2=C\C1CC1 (stereo partly shown) [compound 765] | 0.0025
9 | COc1ccc(-c2ccc(C(=O)O)cc2)cc1C(=O)N[C@@H]1C2CCC(/C2=C/c2ccccc2)[C@@H]1C(=O)Nc1ccc(F)c(C(F)(F)F)c1 (stereo partly shown) [Example 79] | 0.011
10 | COc1ccc(-c2cc(C(OC(=O)NC(C)(C)C)C(=O)O)ccc2F)cc1C(=O)N[C@H]1[C@@H](C(=O)Nc2ccc(F)c(C(F)(F)F)c2)[C@H]2CC[C@@H]1/C2=C\C1CCCC1 (stereo partly shown) [compound 933] | 0.0009
11 | COc1ccc(-c2cc(C(COC(=O)Nc3ccccc3)C(F)(F)F)ccc2F)cc1C(=O)N[C@H]1[C@@H](C(=O)Nc2ccc(F)c(C(F)(F)F)c2)[C@H]2CC[C@@H]1/C2=C\C1CC1 (stereo partly shown) [compound 875] | 0.0018
12 | COc1ccc(C2=NOC3COCC23)cc1C(=O)N[C@H]1[C@@H](C(=O)N[C@H](C)C2CCC2)[C@H]2CC[C@@H]1/C2=C\C1CC1 (stereo partly shown) [compound 507] | 0.0129

The remaining lines, values ahead:

Row | EC50 [µM] | SMILES
13 | 0.0034 | O=C(N[C@H]1[C@@H](C(=O)Nc2ccc(F)c(C(F)(F)F)c2)[C@H]2CC[C@@H]1/C2=C\C1CC1)c1cc(C2=NOC3CC(CO)CC23)ccc1OCC(F)F (stereo partly shown) [compound 783]
14 | 0.055 | COc1ccc(C2=NOC(C)(C(=O)O)C2)cc1C(=O)N[C@@H]1C2CCC(/C2=C/C2CC2)[C@@H]1C(=O)Nc1ccc(F)c(C(F)(F)F)c1 (stereo partly shown) [compound 422]
15 | 0.0047 | COc1ccc(C2=NO[C@H]3CC(CO)C[C@@H]23)cc1C(=O)N[C@H]1[C@@H](C(=O)Nc2ccc(F)c(C(F)(F)F)c2)[C@H]2CC[C@@H]1/C2=C\CC(C)(C)C (stereo partly shown) [compound 841]
16 | 0.163 | COc1ccc([C@@H]2CO[C@H]3[C@@H]2OC[C@H]3O)cc1C(=O)N[C@H]1[C@@H](C(=O)Nc2ccc(F)c(C(F)(F)F)c2)[C@H]2CC[C@@H]1/C2=C\C1CC1 [compound 620]
17 | 0.011 | COc1ccc(-c2cc([C@@H](C)O)on2)cc1C(=O)N[C@H]1[C@@H](C(=O)Nc2ccc(F)c(C(F)(F)F)c2)[C@H]2CC[C@@H]1/C2=C\C1CC1 [compound 500]
18 | 0.0024 | COc1ccc(C2=NOC3CC(C)(CO)CC23)cc1C(=O)N[C@H]1[C@@H](C(=O)Nc2ccc(F)c(C(F)(F)F)c2)[C@H]2CC[C@@H]1/C2=C\C1CC1 (stereo partly shown) [compound 736]
19 | 0.0152 | COc1ccc(C2=NOC(C(C)O)C2)cc1C(=O)N[C@H]1[C@@H](C(=O)Nc2ccc(F)c(C(F)(F)F)c2)[C@H]2CC[C@@H]1/C2=C\C1CC1 (single isomer, unassigned) [compound 509]
